Reference: patent US10131652B2, “Pyrimidinyloxy benzene derivatives as herbicides” (E. I. DU PONT DE NEMOURS AND COMPANY, priority 2014, dated 2018)
Like-named read-outs stand apart in the source and are kept apart here.

How the values were obtained:
Assay type in all cases: in vivo
[1] = tested on: barnyardgrass (Echinochloa crus-galli); assay: Test B pre-/postemergence plant response; conditions: Echinochloa crus-galli, 240 h, 1000 g ai/ha, 0 to 100 scale (0 no effect, 100 complete control), read-out: Plant response rating, Barnyardgrass
Procedure, shortened: (§1)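 Ratings reflect visual injury versus untreated controls, from 0 for no effect to 100 for complete control, assessed roughly 10 days after treatment. Formulation: non-phytotoxic solvent mix with surfactant; pre- and postemergence sprays on plants grown in loam soil and sand.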

corn (Zea mays) = assay: Test B pre-/postemergence plant response; conditions: Zea mays, post-emergence, 240 h; Postemergence, 1000 g ai/ha; 0 to 100 scale (0 no effect, 100 complete control)
Procedure, shortened: as §1

[2] = tested on: giant foxtail (Setaria faberii); assay: Test B pre-/postemergence plant response; conditions: Setaria faberi, 240 h, 1000 g ai/ha, 0 to 100 scale (0 no effect, 100 complete control), read-out: Plant response rating, Foxtail, Giant
Procedure, shortened: as §1

[3] = tested on: pigweed (Amaranthus retroflexus); assay: Test B pre-/postemergence plant response; conditions: Amaranthus retroflexus, 240 h, 1000 g ai/ha, 0 to 100 scale (0 no effect, 100 complete control), read-out: Plant response rating, Pigweed
Procedure, shortened: as §1

[4] = tested on: wheat (Triticum aestivum); assay: Test B pre-/postemergence plant response; conditions: Triticum aestivum, post-emergence, 240 h; Postemergence, 1000 g ai/ha; 0 to 100 scale (0 no effect, 100 complete control); read-out: Plant response rating, Wheat
Procedure, shortened: as §1

[5] = tested on: barnyardgrass (Echinochloa crus-galli); assay: Test D pre-/postemergence plant response; conditions: Echinochloa crus-galli; for pest or weed control at 16 g/ha: 16 g ai/ha; for pest or weed control at 16 g/ha / pest or weed control at 31 g/ha: scale 0 to 100 (0 no effect, 100 complete control); for pest or weed control at 31 g/ha: 31 g ai/ha; for pest or weed control at 62 g/ha: 62 g ai/ha; for pest or weed control at 125 g/ha: 125 g ai/ha
From the text: (§2) Seeds of plant species selected from blackgrass (Alopecurus myosuroides), Italian ryegrass (Lolium multiflorum), winter wheat (Triticum aestivum), galium (catchweed bedstraw, Galium aparine), corn (Zea mays), large (Lg) crabgrass (Digitaria sanguinalis), giant foxtail (Setaria faberii), johnsongrass (Sorghum halepense), lambsquarters (Chenopodium album), morningglory (Ipomoea coccinea), yellow nutsedge (Cyperus esculentus), pigweed (Amaranthus retroflexus), ragweed (common ragweed, Ambrosia elatior), soybean (Glycine max), bamyardgrass (Echinochloa crus-galli), oilseed rape (Brassica napus), waterhemp (common waterhemp, Amaranthus rudis), and velvetleaf (Abutilon theophrasti) were planted into a blend of loam soil and sand and treated preemergence with test chemicals formulated in a non-phytotoxic solvent mixture which included a surfactant. At the same time, plants selected from these crop and weed species and also kochia (Kochia scoparia), wild oat (Avena fatua), and chickweed (common chickweed, Stellaria media) were planted in pots containing Redi-Earth® planting medium (Scotts Company, 14111 Scottslawn Road, Marysville, Ohio 43041) comprising spaghnum peat moss, vermiculite, wetting agent and starter nutrients and treated with postemergence applications of test chemicals formulated in the same manner. Plants ranged in height from 2 to 18 cm (1- to 4-leaf stage) for postemergence treatments. Treated plants and controls were maintained in a greenhouse for 13 to 15 days, after which time all species were compared to controls and visually evaluated. Plant response ratings, summarized in Table D, are based on a scale of 0 to 100 where 0 is no effect and 100 is complete control. A dash (-) response means no test result.

[6] = tested on: blackgrass (Alopecurus myosuroides); assay: Test D pre-/postemergence plant response; conditions: Alopecurus myosuroides; for pest or weed control at 16 g/ha: 16 g ai/ha; for pest or weed control at 31 g/ha: 31 g ai/ha; for pest or weed control at 62 g/ha: 62 g ai/ha; for pest or weed control at 125 g/ha: 125 g ai/ha
From the text: as §2

[7] = tested on: giant foxtail (Setaria faberii); assay: Test D pre-/postemergence plant response; conditions: Setaria faberi; for pest or weed control at 16 g/ha: 16 g ai/ha; for pest or weed control at 31 g/ha: 31 g ai/ha; for pest or weed control at 62 g/ha: 62 g ai/ha; for pest or weed control at 125 g/ha: 125 g ai/ha
From the text: as §2

[8] = tested on: johnsongrass (Sorghum halepense); assay: Test D pre-/postemergence plant response; conditions: Sorghum halepense; for pest or weed control at 16 g/ha: 16 g ai/ha; for pest or weed control at 31 g/ha: 31 g ai/ha; for pest or weed control at 62 g/ha: 62 g ai/ha; for pest or weed control at 125 g/ha: 125 g ai/ha
From the text: as §2

[9] = tested on: large (Lg) crabgrass (Digitaria sanguinalis); assay: Test D pre-/postemergence plant response; conditions: Digitaria sanguinalis; for pest or weed control at 16 g/ha: 16 g ai/ha; for pest or weed control at 31 g/ha: 31 g ai/ha; for pest or weed control at 62 g/ha: 62 g ai/ha; for pest or weed control at 125 g/ha: 125 g ai/ha
From the text: as §2

[10] = post-emergence, Postemergence, read-out: Barnyardgrass plant response rating
[11] = post-emergence, Postemergence, scale 0 to 100, 0 no effect, 100 complete control, read-out: Plant response rating, Barnyardgrass
[12] = pre-emergence, Preemergence, read-out: Plant response rating (scale 0 to 100), Barnyardgrass
[13] = pre-emergence, Preemergence, read-out: Plant response rating, Barnyardgrass
[14] = post-emergence, Postemergence, scale 0 to 100 (0 no effect, 100 complete control), read-out: Blackgrass plant response rating
[15] = post-emergence, Postemergence, scale 0 to 100, 0 no effect, 100 complete control, read-out: Plant response rating, Blackgrass
[16] = pre-emergence, Preemergence, scale 0 to 100 (0 no effect, 100 complete control), read-out: Plant response rating, Blackgrass
[17] = post-emergence, Postemergence, scale 0 to 100 (0 no effect, 100 complete control), read-out: Foxtail, Giant plant response rating
[18] = post-emergence, Postemergence, scale 0 to 100, 0 no effect, 100 complete control, read-out: Plant response rating, Foxtail, Giant
[19] = pre-emergence, Preemergence, scale 0 to 100 (0 no effect, 100 complete control), read-out: Plant response rating, Foxtail, Giant
[20] = post-emergence, Postemergence, scale 0 to 100 (0 no effect, 100 complete control), read-out: Johnsongrass plant response rating
[21] = post-emergence, Postemergence, scale 0 to 100, 0 no effect, 100 complete control, read-out: Plant response rating, Johnsongrass
[22] = pre-emergence, Preemergence, scale 0 to 100 (0 no effect, 100 complete control), read-out: Plant response rating, Johnsongrass
[23] = post-emergence, Postemergence, scale 0 to 100 (0 no effect, 100 complete control), read-out: Crabgrass, Large plant response rating
[24] = post-emergence, Postemergence, scale 0 to 100, 0 no effect, 100 complete control, read-out: Plant response rating, Crabgrass, Large
[25] = pre-emergence, Preemergence, scale 0 to 100 (0 no effect, 100 complete control), read-out: Plant response rating, Crabgrass, Large

Fc1cccc(Oc2ncc(Cl)cn2)c1-c1cc(C(F)F)on1 [Compound 55, 5-chloro-2-[2-[5-(difluoromethyl)-3-isoxazolyl]-3-fluorophenoxy]pyrimidine]
100%: pest or weed control at 1000 g/ha ([1]; post-emergence, Postemergence) | pest or weed control at 1000 g/ha ([1]; pre-emergence, Preemergence) | Corn plant response rating (crop injury, 0 = no effect, 100 = complete kill) at 1000 g/ha (corn (Zea mays)) | pest or weed control at 1000 g/ha ([2]; post-emergence, Postemergence) | pest or weed control at 1000 g/ha ([2]; pre-emergence, Preemergence) | pest or weed control at 1000 g/ha ([3]; post-emergence, Postemergence) | pest or weed control at 1000 g/ha ([3]; pre-emergence, Preemergence) | plant injury at 1000 g/ha [4] | pest or weed control at 62 g/ha [5, 12] | pest or weed control at 125 g/ha [5, 12] | pest or weed control at 125 g/ha ([7]; pre-emergence, Preemergence, read-out: Plant response rating (scale 0 to 100), Foxtail, Giant) | pest or weed control at 16 g/ha [7, 19] | pest or weed control at 31 g/ha [7, 19] | pest or weed control at 62 g/ha [7, 19] | pest or weed control at 125 g/ha ([8]; pre-emergence, Preemergence, read-out: Plant response rating (scale 0 to 100), Johnsongrass) | pest or weed control at 125 g/ha ([9]; pre-emergence, Preemergence, read-out: Plant response rating (scale 0 to 100), Crabgrass, Large) | pest or weed control at 16 g/ha [9, 25] | pest or weed control at 31 g/ha [9, 25] | pest or weed control at 62 g/ha [9, 25]
90%: pest or weed control at 125 g/ha ([6]; pre-emergence, Preemergence, read-out: Plant response rating (scale 0 to 100), Blackgrass) | pest or weed control at 31 g/ha [6, 16] | pest or weed control at 62 g/ha [6, 16]
75%: pest or weed control at 125 g/ha [7, 18] | pest or weed control at 31 g/ha [8, 22]
25%: pest or weed control at 16 g/ha [5, 13]
15%: pest or weed control at 62 g/ha [5, 11] | pest or weed control at 125 g/ha [5, 11] | pest or weed control at 16 g/ha [6, 16] | pest or weed control at 125 g/ha [8, 21] | pest or weed control at 125 g/ha [9, 24]
5%: pest or weed control at 16 g/ha [5, 10] | pest or weed control at 16 g/ha [6, 14] | pest or weed control at 16 g/ha [8, 20] | pest or weed control at 31 g/ha [8, 20] | pest or weed control at 16 g/ha [9, 23]
30%: pest or weed control at 62 g/ha [6, 15] | pest or weed control at 16 g/ha [8, 22]
50%: pest or weed control at 125 g/ha [6, 15] | pest or weed control at 31 g/ha [7, 17]
40%: pest or weed control at 16 g/ha [7, 17] | pest or weed control at 62 g/ha [7, 18]
85%: pest or weed control at 31 g/ha [5, 13] | pest or weed control at 62 g/ha [8, 22]
10%: pest or weed control at 31 g/ha [5, 10] | pest or weed control at 31 g/ha [6, 14] | pest or weed control at 62 g/ha [8, 21] | pest or weed control at 31 g/ha [9, 23] | pest or weed control at 62 g/ha [9, 24]
